Tested on: sulfur-oxidizing microbes
Test: Water toxicity detection with sulfur particles: electrical conductivity difference between inflow and outflow water, continuous reaction container
Assay type: cell-based, Thiobacillus
Conditions: 30 ppm test substance in the sample; EBCT 17 minute; 30° C.; ratio 0~1, about 1 = no toxicity, about 0 = high toxicity; 0.3 corresponds to issuing alarm
Description: When the microbes attached around the sulfur particles are grown in the reaction container 130 of which conditions such as temperature is constant, the sulfur is oxidized at a constant speed. The following formula expresses a reaction of generation of sulfate ions and hydrogen ions in the processes. S+H2O+1.5O2−>SO4^2−+2H^+ΔG°′=−587.1 kJ/reaction
Referring to the above formula, the sulfur particles react with the microbes, the inflow water, and the oxygen in the reaction container 130 to generate a predetermined amount of sulfate ions. In case of non-toxic outflow water, the amount of sulfate ions thereof is increased by a predetermined amount in comparison with the inflow water. Since a degree of alkali in a river water is generally low, pH of the outflow water is decreased in comparison with the inflow water.
However, in case of the inflow water containing toxic substances, a degree of activation of the microbes attached around the sulfur particles is lowered, so that the sulfur particles can not be oxidized. […]
The reaction container is filled with a 30 mL of sulfur particles. […] While an empty bed contact time (EBCT) of the inflow water is changed among 7.1, 8.3, 10.0, 12.5, and 16.7 minutes, the pH and electrical conductivity of the inflow water and the outflow water are measured. The EBCT is calculated by dividing a volume (30 mL) of the sulfur particles with a flow rate. […]

hexavalent chrome was tested, and the ECDifference ratio was 0.3.

Source: patent US8569045B2, “Water toxicity detecting apparatus and method using sulfur particles” (University-Industry Cooperation Foundation, Kangwon …, priority 2007, dated 2013)
